Earlier results on one compound are cited in patent EP0682945B1, “Oral sustained release preparation” (Lannacher Heilmittel Ges.m.b.H., priority 1994, dated 1995).

The conditions of this data set: orale Anwendung, im Mittel.

With `CN1CC[C@]23c4c5ccc(O)c4O[C@H]2[C@@H](O)C=C[C@H]3[C@H]1C5` [Morphin], the Bioverfügbarkeit is 38%.
